Source: patent US10024865B2, “Ubiquitination assay” (ITI Scotland Limited, priority 2010, dated 2018)
Several values for one entry are separate records, joined by “and”; a condition that tells them apart may be missing. Equal entries are not always repeated. Entries after “also recorded” stand apart in the source; their conditions may differ.

Columns and labels:
Ube1 [1] = target: T1, Ube1 (Homo sapiens, UniProt P22314); assay: Ube1 (E1) assay, ECL; format: biochemical; details: 50 nM E1, 2 μM Ub
T1 construct: 6His-UBE1-(hu,FL) (E1); made in house
T1 sequence (P22314 1-1058): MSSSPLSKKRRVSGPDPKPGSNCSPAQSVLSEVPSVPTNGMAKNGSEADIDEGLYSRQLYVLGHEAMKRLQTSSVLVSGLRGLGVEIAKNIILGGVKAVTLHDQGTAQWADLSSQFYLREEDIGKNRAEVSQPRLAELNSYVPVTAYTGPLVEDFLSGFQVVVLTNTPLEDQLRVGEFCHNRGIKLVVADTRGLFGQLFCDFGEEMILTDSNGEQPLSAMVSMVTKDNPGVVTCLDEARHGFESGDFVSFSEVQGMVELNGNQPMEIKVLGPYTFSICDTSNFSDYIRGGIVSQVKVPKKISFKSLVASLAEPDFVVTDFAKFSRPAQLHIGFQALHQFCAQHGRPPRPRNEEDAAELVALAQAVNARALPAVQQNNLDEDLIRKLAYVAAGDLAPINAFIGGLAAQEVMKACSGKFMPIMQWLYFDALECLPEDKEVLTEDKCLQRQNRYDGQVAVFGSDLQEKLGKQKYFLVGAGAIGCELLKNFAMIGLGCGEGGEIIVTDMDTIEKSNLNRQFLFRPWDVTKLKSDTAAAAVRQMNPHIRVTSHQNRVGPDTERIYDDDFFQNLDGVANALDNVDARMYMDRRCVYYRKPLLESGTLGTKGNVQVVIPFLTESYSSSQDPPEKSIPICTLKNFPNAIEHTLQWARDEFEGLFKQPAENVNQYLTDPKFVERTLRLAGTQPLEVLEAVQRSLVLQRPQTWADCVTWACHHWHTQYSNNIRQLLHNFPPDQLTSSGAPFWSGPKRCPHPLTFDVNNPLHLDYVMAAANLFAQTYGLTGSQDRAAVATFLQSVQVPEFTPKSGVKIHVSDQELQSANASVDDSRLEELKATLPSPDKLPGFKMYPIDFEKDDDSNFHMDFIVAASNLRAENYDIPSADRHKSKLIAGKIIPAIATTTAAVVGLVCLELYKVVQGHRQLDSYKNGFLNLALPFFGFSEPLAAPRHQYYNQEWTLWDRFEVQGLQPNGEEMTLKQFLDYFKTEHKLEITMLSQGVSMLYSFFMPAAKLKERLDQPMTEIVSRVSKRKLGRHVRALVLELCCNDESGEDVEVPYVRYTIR
Experimental: FIG. 11: Ube1 inhibitor study PYR41— ECL. Inhibitor study. Titration of PYR41 (Calbiochem 662105) from 300 μM to 10 nM. Used anti-His capture for E1 (Millipore, 16-255, 1/1000 dil); 50 nM E1; 2 μM Ub; 500 μM ATP; 30-minute pre-incubation with cpd.; 30 minute reaction time.
(§1) FIG. 30 (b): E1/E2 Assay—ECL Inhibitor study—PYR-41. Used 60 minute incubation; 2 μM Ub; 100 μM ATP. For E1 assay (Anti-His capture) 50 nM E1. For E2 assay (Anti HA-capture) 5 nM E1; 50 nM E2. Used streptavidin sulfo tag (MSD R32AD-1, 1 μg/ml); titration of PYR41 (Calbiochem 662105) from 300 μM to 10 nM.
For the IC50 determination of Pyr-41, the data shown is that from a 30 minute pre-incubation and a 30 minute assay. The assay was performed in a separate plate and then transferred. For information purposes, another set of assays were performed within the capture/detect plate and stopped immediately by washing off the assay solution, or washed after 60 min. It was interesting to note that even with the wash at time 0 an IC50 for the compound that was in line with the data shown could still be determined.
(§2) Each of the assays in the p27 ubiquitination cascade (E1, E2 and E3) were tested against the E1 inhibitor PYR-41. No pre-charging of either the E1 or E2 was carried out prior to the introduction of the compound although in the E3 assay, p27 phosphorylation by CDK2/Cyclin E was carried out in the absence of inhibitor.

SCF^Skp2/Cks1 = test system: T2, SCF^Skp2/Cks1; assay: 'Live' SCF^Skp2/Cks1 assay (E3 assay, p27 ubiquitination), ECL; format: biochemical, human; details: for follow up IC50 (in words): titration from 300 μM to 10 nM
T2 construct: 6His-Skp2-(isoform 1, hu,FL), GST-Skp1-; (hu,FL), 6His-Cul1-(hu,FL), UT-Rbx1-; 6His-Cks1-(hu,FL); 6His (N); GST (N); made in house
T2 sequence (Q13309 whole entry, canonical isoform): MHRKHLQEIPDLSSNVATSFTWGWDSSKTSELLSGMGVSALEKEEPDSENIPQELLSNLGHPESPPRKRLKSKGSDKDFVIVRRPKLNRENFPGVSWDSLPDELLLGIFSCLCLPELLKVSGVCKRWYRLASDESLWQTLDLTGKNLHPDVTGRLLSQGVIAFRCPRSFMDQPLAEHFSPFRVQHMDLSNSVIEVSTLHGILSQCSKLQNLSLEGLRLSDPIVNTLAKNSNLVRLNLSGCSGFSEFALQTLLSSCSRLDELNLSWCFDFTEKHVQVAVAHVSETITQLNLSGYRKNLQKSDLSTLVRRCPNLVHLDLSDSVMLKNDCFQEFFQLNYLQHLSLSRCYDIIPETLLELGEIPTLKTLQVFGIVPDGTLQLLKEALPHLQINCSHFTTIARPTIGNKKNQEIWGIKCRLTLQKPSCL
T2 sequence (P63208 1-160 isoform P63208-2, further chain): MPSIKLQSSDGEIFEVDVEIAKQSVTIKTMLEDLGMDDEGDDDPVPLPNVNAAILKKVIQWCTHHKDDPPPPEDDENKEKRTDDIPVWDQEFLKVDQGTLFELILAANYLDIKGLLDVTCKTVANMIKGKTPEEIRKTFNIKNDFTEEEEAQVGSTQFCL
T2 sequence (Q13616 whole entry, further chain, canonical isoform): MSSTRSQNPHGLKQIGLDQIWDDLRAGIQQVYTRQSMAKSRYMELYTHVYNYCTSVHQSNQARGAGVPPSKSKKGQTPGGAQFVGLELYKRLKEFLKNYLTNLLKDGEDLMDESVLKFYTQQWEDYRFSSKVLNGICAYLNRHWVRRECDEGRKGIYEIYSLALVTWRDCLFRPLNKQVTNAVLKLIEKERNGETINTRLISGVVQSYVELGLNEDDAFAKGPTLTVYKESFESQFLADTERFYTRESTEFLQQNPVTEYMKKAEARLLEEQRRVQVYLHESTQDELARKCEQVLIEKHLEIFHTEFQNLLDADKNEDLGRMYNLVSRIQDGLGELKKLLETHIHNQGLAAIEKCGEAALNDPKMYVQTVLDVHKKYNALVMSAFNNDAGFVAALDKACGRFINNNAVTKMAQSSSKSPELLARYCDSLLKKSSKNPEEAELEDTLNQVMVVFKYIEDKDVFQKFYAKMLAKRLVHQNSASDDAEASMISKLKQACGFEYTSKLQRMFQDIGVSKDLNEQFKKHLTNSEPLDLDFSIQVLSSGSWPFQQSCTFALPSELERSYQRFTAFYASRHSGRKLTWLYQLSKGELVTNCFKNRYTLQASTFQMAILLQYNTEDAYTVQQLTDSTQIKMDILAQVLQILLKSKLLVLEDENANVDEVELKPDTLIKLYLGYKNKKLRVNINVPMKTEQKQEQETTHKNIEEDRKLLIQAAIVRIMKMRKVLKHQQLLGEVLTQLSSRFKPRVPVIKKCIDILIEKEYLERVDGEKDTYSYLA
T2 sequence (P62877 whole entry, further chain, canonical isoform): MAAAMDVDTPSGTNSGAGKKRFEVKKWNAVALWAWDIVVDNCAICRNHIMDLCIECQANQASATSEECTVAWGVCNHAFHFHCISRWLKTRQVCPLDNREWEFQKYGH
T2 sequence (P61024 whole entry, further chain, canonical isoform): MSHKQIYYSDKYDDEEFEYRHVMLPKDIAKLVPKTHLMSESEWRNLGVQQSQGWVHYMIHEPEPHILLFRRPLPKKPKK
Experimental: FIG. 23 (a): ‘Live’ SCF^Skp2/Cks1 Assay—ECL ubiquitin titration. Used 60 minute incubation; 25 nM c-Myc p27; anti c-Myc capture for p27 (Millipore 05-274, 1/500); 5 nM E1; 1 μM E2 (HA); 25 nM E3/Cks1; 5 to 0.08 μM Ub; 1000 to 15 μM ATP; streptavidin sulfo tag (MSD, R32AD-1, 1 μg/ml). Hyperbolic increase in signal with [Ub]. Optimum signal after 2 μM ubiquitin. Largely […] of ATP concentration. […] Final assay concentration is set at 2 μM.
FIG. 23 (b): ‘Live’ SCF^Skp2/Cks1 Assay—ECL ATP titration. Used 60 minute incubation; 25 nM c-Myc p27; anti c-Myc capture for p27 (Millipore 05-274, 1/500); 5 nM E1; 1 μM E2 (HA); 25 nM E3/Cks1; 2 μM Ub; 1000 to 7 μM ATP; streptavidin sulfo tag (MSD, R32AD-1, 1 μg/ml). Initial experiments indicated a high signal which was independent of ATP concentration (lowest [ATP] of 21 μM)—indicative of tight binding. […] Km estimated at 4 μM. Final assay concentration set at 100 μM.
FIG. 30 (a): ‘Live’ SCF^Skp2/Cks1 Assay—ECL Inhibitor study—PYR-41 (E1 inhibitor).
FIG. 32: ‘Live’ SCF^Skp2/Cks1 Assay—ECL R140 Kinase inhibitor panel. Used 60 minute incubation; 25 nM c-Myc p27; anti-c-Myc capture for p27 (Millipore 05-274, 1/500); 5 nM E1; 1 μM E2 (HA); 25 nM E3 tetramer; 25 nM Cks1; 2 μM Ub; 100 μM ATP; streptavidin sulfo tag (MSD, R32AD-1, 1 μg/ml).
FIG. 34: ‘Live’ SCF^Skp2/Cks1 Assay—ECL follow up IC50s. Used 60 minute incubation; 25 nM c-Myc p27; anti c-Myc capture for p27 (Millipore 05-274, 1/500); 5 nM E1; 1 μM E2 (HA); 25 nM E3 tetramer; 25 nM Cks1; 2 μM Ub; 100 μM ATP; streptavidin sulfo tag (MSD, R32AD-1, 1 μg/ml). Titration of PYR41 (Calbiochem 662105) from 300 μM to 10 nM (control). Titration of Rottlerin, EGCG, AG538 and K252c from 300 μM to 10 nM.
as §2
In order to test the feasibility of screening the E3 assay against a range of inhibitors, the assay was tested against a panel of 41 inhibitors (40 known kinase inhibitors and PYR-41) (FIG. 31). […] Using the same assay conditions, the E3 assay was tested against these inhibitors (FIG. 33).

E1 = target: T3, E1 (Homo sapiens, UniProt P22314); details: cited from earlier work
T3 construct: literature BiogenNova / Calbiochem (quoted value)
T3 sequence (P22314 1-1058): T1 sequence (P22314 1-1058)

UbCH3 = target: T4, UbCH3 (Homo sapiens, UniProt P49427); assay: UbCH3 (E2) assay, ECL (anti-HA capture); format: biochemical; details: 5 nM E1, 50 nM E2, 2 μM Ub, 100 μM ATP, 60 minute incubation
T4 construct: HA,6His-UbcH3-(hu,FL) (E2); made in house
T4 sequence (P49427 whole entry, one chain of several): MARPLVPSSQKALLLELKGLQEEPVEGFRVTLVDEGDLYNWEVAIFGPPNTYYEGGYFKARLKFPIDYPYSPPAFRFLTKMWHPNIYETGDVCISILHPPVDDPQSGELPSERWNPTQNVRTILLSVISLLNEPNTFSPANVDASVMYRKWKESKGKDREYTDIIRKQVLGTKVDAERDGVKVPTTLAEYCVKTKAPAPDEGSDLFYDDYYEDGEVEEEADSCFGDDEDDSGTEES
Experimental: as §1, §2

Ube1 [2] = target: T1, Ube1; assay: E1 assay, HTRF; format: biochemical; details: 1 μM E1, 2 μM Ub, Anti-6His-K, 30 minutes pre-incubation
Experimental: (§3) FIG. 18: Ube1 Inhibitor study PYR41 in E1 and E1+E2 assay—HTRF. Inhibitor study: 30 minutes pre-incubation with PYR-41. Assays were immediately diluted followed by addition of 2 mM ATP.
(§4) Using conditions identified previously, an IC50 determination for Pyr-41 using the E1 and E1/E2 assays was performed. […] This may be a reflection of the higher enzyme concentrations used in the HTRF assay step (FIG. 18).

Ube1/UbCH3 = target: T5, Ube1/UbCH3 (Homo sapiens, UniProt P22314); assay: E1+E2 (Ube1+UbCH3) assay, HTRF; format: biochemical; details: 100 nM E1, 1 μM E2, 400 nM Ub
T5 construct: 6His-UBE1-(hu,FL) (E1); made in house
T5 sequence (P22314 1-1058): T1 sequence (P22314 1-1058)
Experimental: as §3
BiogenNova quote IC50 value as ˜5 μM.
as §4

[3] = ECL E3 assay, kinase inhibitor panel screen

In the case of `CCOC(=O)c1ccc(N2NC(=O)/C(=C/c3ccc([N+](=O)[O-])o3)C2=O)cc1` [PYR-41], the IC50 (Ube1 [1]; 500 μM ATP, 30 minute pre-incubation with cpd, 30 minute reaction time) is reported as 1.3 µM, the IC50 (Ube1 [1]; anti-His capture, 100 μM ATP, 60 minute incubation) is reported as 7.8 µM and the “inhibition in panel of 41 inhibitors” value (SCF^Skp2/Cks1; [3]) is reported as > 80%. The IC50 (SCF^Skp2/Cks1; ECL, 25 nM c-Myc p27, 5 nM E1, 1 μM E2, 25 nM E3 tetramer, 25 nM Cks1, 2 μM Ub, 100 μM ATP, 60 minute incubation) was 55 µM and 84 µM, the “reported values for the inhibitor (in words)” value (E1; literature) was “low micromolar range” and the IC50 (E1; quoted by BiogenNova / Calbiochem, vs. E1) was ~5 µM. It also gave an IC50 (UbCH3) of 3.2 µM, an IC50 (Ube1 [2]) of 43 µM and an IC50 (Ube1/UbCH3; Anti-6His-K detection) of 16 µM. It also gave an IC50 (Ube1/UbCH3; Anti-FLAG-K detection) of 20 µM.

With `O=C1NCc2c1c1c3ccccc3[nH]c1c1[nH]c3ccccc3c21` [K252c] the “inhibition in kinase inhibitor panel (in words)” value (“inhibition … (in words)” below) (SCF^Skp2/Cks1; [3]) was “show up as inhibitors; also recorded: moderate amounts of inhibition” and the “follow up IC50 (in words)” value (SCF^Skp2/Cks1; ECL E3 assay) was “false positive result”.

For `O=C(O[C@@H]1Cc2c(O)cc(O)cc2O[C@@H]1c1cc(O)c(O)c(O)c1)c1cc(O)c(O)c(O)c1` [EGCG], the “inhibition … (in words)” value (SCF^Skp2/Cks1; [3]) was “show up as inhibitors; also recorded: moderate amounts of inhibition” and the “follow up IC50 (in words)” value (SCF^Skp2/Cks1; ECL E3 assay) was “in the μM range”.

With `CC(=O)c1c(O)c(C)c(O)c(Cc2c(O)c3c(c(C(=O)/C=C/c4ccccc4)c2O)OC(C)(C)C=C3)c1O` [Rottlerin] the “inhibition … (in words)” value (SCF^Skp2/Cks1; [3]) was “show up as inhibitors; also recorded: moderate amounts of inhibition” and the “follow up IC50 (in words)” value (SCF^Skp2/Cks1; ECL E3 assay) was “in the μM range”.

With `N#C/C(=C\c1ccc(O)c(O)c1)C(=O)c1ccc(O)c(O)c1` [AG538] the “inhibition … (in words)” value (SCF^Skp2/Cks1; [3]) was “show up as inhibitors”.

Molecule `Nc1ncnc2c1ncn2[C@@H]1O[C@H](COP(=O)(O)OP(=O)(O)OP(=O)(O)O)[C@@H](O)[C@H]1O` [ATP, Adenosine-5′-Triphosphate] has a Km (SCF^Skp2/Cks1; ECL E3 assay, ATP titration 1000 to 7 μM, 2 μM Ub, read-out: apparent Km for ATP) of ~4 µM.
